From ChEMBL document CHEMBL4699396, “Macrocyclic peptidomimetics as inhibitors of insulin-regulated aminopeptidase (IRAP)” (RSC Med Chem, 2020) come the findings set out here.

Molecules are shown by their SMILES.

The test has as its system Insulin-regulated aminopeptidase (Homo sapiens). Kind of test: Binding affinity to recombinant full length human IRAP expressed in HEK293T cells assessed as binding free energy.

For `N[C@H]1CC/C=C\CC[C@@H](C(=O)NCc2ccccc2CC(=O)O)NC(=O)C[C@H](Cc2ccc(O)cc2)NC1=O`, the deltaG is -44.6 kJ/mol.

Consider `N[C@H]1CC/C=C/CC[C@@H](C(=O)NCc2ccccc2CC(=O)O)NC(=O)C[C@H](Cc2ccc(O)cc2)NC1=O`, for which the deltaG is -51.9 kJ/mol.
